The text below walks through data of the METLIN SMRT retention time set (Domingo-Almenara et al. 2019).

The data set is described as follows: gradient 5% acetonitrile 3 min, to 50% in 2 min, to 85% in 15 min, held 3 min, 100 µL/min. The settings on record: column: Zorbax Extend-C18 2.1 x 50 mm; eluents: water / acetonitrile, 0.1% formic acid. The method in brief:
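Pure standards were run in mixtures of ~100 molecules by HPLC coupled to a quadrupole time-of-flight mass spectrometer. The column was a Zorbax Extend-C18 (2.1 × 50 mm, 1.8 μm) at 100 μL/min, with water and acetonitrile each containing 0.1% formic acid, in positive and negative ionization mode. Dead and dwell volumes were 40 μL and 900 μL. Retention time was taken from computationally picked adduct peaks, each manually inspected, with data collected over 3 months.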
Turning to `COc1ccccc1N1CCN(c2cc(SCC(=O)Nc3ccc(C)cc3C)ncn2)CC1`, the RP-LC retention time stood at 1040 s.

`CCCCn1cc(S(=O)(=O)NCc2cccc(F)c2)c2cccnc21` came in with an RP-LC retention time of 964 s.

Molecule `COC(=O)c1ccsc1NC(=O)c1cc(-c2ccccc2)on1` returned an RP-LC retention time of 1170 s.

For `C#CCNc1ccc(C(=O)OCC)cc1`, the RP-LC retention time was 879 s.

`COc1ccccc1NC(=O)Cn1nc2c(Oc3ccccc3C)nccn2c1=O` had an RP-LC retention time of 839 s.

For `CC(C)C(=O)Nc1ccc2c(c1)N(C(=O)c1ccco1)CCC2`, the RP-LC retention time turned out to be 743 s.

`CCCNC(=O)C1CCN(c2ccc(SCC(=O)Nc3ccc(OC)c(Cl)c3)nn2)CC1`: the RP-LC retention time stood at 654 s.

The molecule `CC(C)N1CCN(Cc2ccc(C(=O)NCc3ccccc3C(F)(F)F)cc2)C(=O)C1=O` displayed an RP-LC retention time of 770 s.

With `C=CCN1C(=O)COc2ccc(-c3nc(NC(=O)COC)sc3C)cc21`, the RP-LC retention time amounted to 836 s.

Molecule `COc1ccc(/C=C/C(=O)Nc2ccccc2C(=O)O)cc1OC` yielded an RP-LC retention time of 927 s.

`O=C(CN(C(=O)c1ccc(F)c(Cl)c1)C1CCCCC1)N1CCNCC1` gave an RP-LC retention time of 659 s.

In turn, `CCCNc1cc(N2CCCC(CCC(=O)N(CC)CC)C2)ncn1` (stereo not given) showed an RP-LC retention time of 658 s.

With `O=C(c1cccn1-c1nnc(N2CCOCC2)s1)N1CCCCCC1`, the RP-LC retention time came to 747 s.

For `Cc1cc(N2CCCC2)n2nc(-c3ccccc3C)nc2n1`, the RP-LC retention time was 729 s.

On to `CCc1ccccc1S(=O)(=O)N1C[C@H](F)C[C@@H]1C(=O)N1CCOCC1`, for which the RP-LC retention time was found to be 740 s.

`COc1ccc(-c2nccn3cc(C(=O)O)nc23)cc1` registered an RP-LC retention time of 672 s.

Consider `Cc1ccc(CNC(=O)C2CCCN(C(=O)C3Sc4ccccc4NC3=O)C2)cc1` (stereo not given), for which the RP-LC retention time amounted to 782 s.

`Cc1ccc(-c2noc(Cn3cnc4c(cnn4-c4ccc(C(C)C)cc4)c3=O)n2)cc1` registered an RP-LC retention time of 1300 s.

With `Cc1cc2c(c(=O)n(-c3ccccc3)c(=O)n2CC(=O)Nc2cccc(C#N)c2)n1C`, the RP-LC retention time was determined as 784 s.

Molecule `CC1CCN(S(=O)(=O)c2ccc3c(c2)CCCC(=O)N3CC(=O)N2CCOCC2)CC1` gave an RP-LC retention time of 768 s.

`O=C(c1ccncn1)N1CC(F)(F)C[C@H]1COc1ccc2c(c1)CCC2` had an RP-LC retention time of 1020 s.

As for `O=C(c1ccc2ccnc(N3CCN(c4ccc(F)cc4)CC3)c2c1)N1CCCCC1`, the RP-LC retention time is 792 s.

The molecule `Cc1ccc(NC(=O)c2cnn3c2CCCC3)cc1` showed an RP-LC retention time of 770 s.

Take `Cc1ccccc1-n1c(Cn2cnc3c(N)ncnc32)nc2cccc(C)c2c1=O`: the RP-LC retention time is 719 s.

`Cc1cccc(NC(=O)Cn2ncn3c(C)c(C(=O)NCC(C)C)c(C)c3c2=O)c1` gave an RP-LC retention time of 594 s.

For `O=C(CCc1nc(C2=CCN(Cc3ccc(Cl)cc3)CC2)no1)NC1CC1`, the RP-LC retention time was 890 s.

As to `O=C(CN1C(=O)C(C(=O)N2CCCC2)Sc2ccccc21)NC1CCCCCCC1` (stereo not given), the RP-LC retention time came out at 1060 s.

For the molecule `Cc1nnsc1C(=O)Nc1ccc([N+](=O)[O-])cc1C(F)(F)F`, the RP-LC retention time was 868 s.

In the case of `O=C(c1ccncc1)N1CC(C(=O)N2CCSCC2)C2(CCCCC2)C1` (stereo not given), the RP-LC retention time turned out to be 620 s.

In the case of `CCOC(=O)C1=C(CN2CCN(C)CC2)NC(=O)NC1c1cccc(OC)c1OC` (stereo not given), the RP-LC retention time was 595 s.

For `COc1cccc(-c2csc(Nc3ccc(Br)cn3)n2)c1`, the RP-LC retention time is 1170 s.

Molecule `Cc1cn2c(S(=O)(=O)NC3CCCCCC3)c(C(C)C)nc2s1` had an RP-LC retention time of 1050 s.

In the case of `CN1c2cc(F)ccc2C(=O)NC12CCN(C(=O)Cc1ccc(Cl)cc1)CC2`, the RP-LC retention time worked out at 919 s.

On to `O=C(Nc1ccccc1Br)N1CCCC1c1nc(-c2ccc(F)cc2F)no1` (stereo not given), for which the RP-LC retention time came out at 1070 s.

`C/C=C1/[C@H]2C=C(C)C[C@]1(N)c1ccc(=O)[nH]c1C2` came in with an RP-LC retention time of 589 s.

Turning to `CCN(CC)C(=O)c1ccc2nc(-c3ccc(Cl)cc3)cn2c1`, the RP-LC retention time worked out at 681 s.

In turn, `Cc1cccc(NC(=O)CN2C(=O)CCCc3cc(S(=O)(=O)N4CCC(C)CC4)ccc32)c1` had an RP-LC retention time of 1010 s.

In turn, `Cc1ccc(CNC(=O)Cc2nnc(-c3ccc4ncccc4c3)o2)cc1C` displayed an RP-LC retention time of 915 s.

`Cc1ccc(NC(=O)N(C)CC2CCOC2)c(Cl)c1` (stereo not given) had an RP-LC retention time of 766 s.

Molecule `CCC(=O)N(C1CCOCC1)C1CCN(S(=O)(=O)c2ccc(C)cc2C)CC1` had an RP-LC retention time of 880 s.

The molecule `COc1ccc(-n2nnc(-c3nc(-c4cc(OC)ccc4OC)cs3)c2C)cc1` gave an RP-LC retention time of 1140 s.

As to `CC(C)n1cnc(S(=O)(=O)N2CCCC(C(=O)NCc3ccc(Cl)cc3)C2)c1` (stereo not given), the RP-LC retention time came to 799 s.

With `O=C(CN1CCN(c2ccccc2)CC1)Nc1nc(-c2ccc(Cl)cc2)cs1`, the RP-LC retention time was 834 s.

`O=C(NCc1ccc2c(c1)OCO2)C1CC(=O)N(c2ccc3c(c2)CCN3C(=O)C2CC2)C1` (stereo not given) gave an RP-LC retention time of 714 s.

Regarding `Cc1ccc(C(=O)N2CCCC(COc3ccc(C(=O)NC(C)C)cc3)C2)c(C)c1` (stereo not given), the RP-LC retention time came to 916 s.

On to `Cc1ccc(C)c(-c2coc(-c3ccc(NC(=O)COc4ccc(F)cc4)cc3)n2)c1`, for which the RP-LC retention time worked out at 1310 s.

As for `CCOC(=O)N1CCC2(CC1)OC(=O)C(C)=C2C(=O)Nc1cc(OC)cc(OC)c1`, the RP-LC retention time amounted to 864 s.

As to `Cn1cc(-c2ccncc2)cc1C(=O)N1CCN(c2ccccc2Cl)CC1`, the RP-LC retention time is 671 s.

In turn, `CCS(=O)(=O)N1CCCc2cc(C(=O)Nc3cc(OC)ccc3OC)ccc21` had an RP-LC retention time of 954 s.

`Cc1cccc(N2CCN(CCNC(=O)c3cc4sccc4n3C)CC2)c1C` gave an RP-LC retention time of 778 s.

Take `O=C(C1CCC1)N1CCC2(CC1)NCCc1c2[nH]c2ccccc12`: the RP-LC retention time is 628 s.

For `COc1ccc(CC(=O)NCC2(CO)CC2)cc1OC`, the RP-LC retention time turned out to be 582 s.

In turn, `O=C1CC(c2nc(-c3ccccc3F)no2)CN1c1ccc2c(c1)OCO2` (stereo not given) yielded an RP-LC retention time of 865 s.

The molecule `O=C(NCCC1CCCCN1S(=O)(=O)c1ccccc1)C(=O)Nc1ccccc1Cl` (stereo not given) yielded an RP-LC retention time of 1060 s.

As for `O=C(CS(=O)Cc1cnn(-c2ccccc2)c1-n1cccc1)NCc1ccccc1` (stereo not given), the RP-LC retention time worked out at 797 s.

`N#Cc1cc(NC(=O)Cc2nnc(-c3ccc4ncccc4c3)o2)ccc1F` had an RP-LC retention time of 720 s.

The molecule `Cn1cc(-c2ccncc2)cc1C(=O)NCc1cccc(Br)c1` had an RP-LC retention time of 672 s.

With `Cc1ccc(NC(=O)Nc2nc(CC(=O)Nc3ccc(F)c(F)c3)cs2)cc1`, the RP-LC retention time amounted to 862 s.

With `COc1ccc(N2CC(c3nc(-c4ccc(CNC(=O)C5CC5)s4)no3)CC2=O)cc1` (stereo not given), the RP-LC retention time was 748 s.

`COc1ccccc1N1CCN(C(=O)c2nnc(-c3ccc(S(=O)(=O)N4CCCC4)cc3)o2)CC1` gave an RP-LC retention time of 972 s.

`COc1ccc(-c2cc3nn(CC(=O)Nc4c(C)cccc4C)c(=O)n3c(C)n2)cc1` had an RP-LC retention time of 909 s.

Turning to `CCSc1ccccc1C(=O)Nc1ccc(-c2nc(C)no2)cc1`, the RP-LC retention time worked out at 878 s.

`Cc1ccc(CNC(=O)C2CCN(S(=O)(=O)c3c(C)[nH]c(C)c3C(=O)N3CCCC3)CC2)o1` yielded an RP-LC retention time of 679 s.

The molecule `CCn1cc(CCNS(=O)(=O)c2cccc(F)c2)c2cccnc21` yielded an RP-LC retention time of 774 s.

In turn, `O=C(Nc1ccc(Br)cc1F)c1ccc(N2CCOCC2)nn1` yielded an RP-LC retention time of 899 s.

In turn, `C=CCNC(=O)COc1cccc2c(=O)n(CC=C)ccc12` registered an RP-LC retention time of 700 s.

The molecule `CCc1ccc(NC(=O)Cn2nc3cc(-c4ccccc4)nc(C)n3c2=O)cc1` gave an RP-LC retention time of 899 s.

`O=C(NC1CCCCC1)C1CCc2sc(C(=O)N3CCOCC3)cc2C1` (stereo not given): the RP-LC retention time was 741 s.

As for `Cn1cc(S(=O)(=O)Nc2ccc(F)cc2Cl)c2cccnc21`, the RP-LC retention time was found to be 814 s.

`Cc1ccc(OCC(=O)NC[C@@]23CCC[C@H]2N(C)C(=O)CC3)cc1` showed an RP-LC retention time of 674 s.

`O=C(c1noc2ccc(S(=O)(=O)N3CCCc4ccccc43)cc12)N1CCCCC1` came in with an RP-LC retention time of 1090 s.

The molecule `O=C(NCCC1=CCCCC1)C1CCCN(c2ncc(-c3cccc(F)c3)cn2)C1` (stereo not given) yielded an RP-LC retention time of 1220 s.

Molecule `CC(=O)Nc1cc(C(=O)NCc2nn(Cc3ccccc3)c3ccccc23)ccc1C` gave an RP-LC retention time of 794 s.

As to `CCCN(CC1CCOC1)C(=O)Nc1ccc(Cl)cc1` (stereo not given), the RP-LC retention time stood at 843 s.

For `CC1CCCN(c2ccc(-c3noc(CN4CCC(C(N)=O)CC4)n3)cn2)C1` (stereo not given), the RP-LC retention time was found to be 589 s.

The molecule `CCNC(=O)N1CC(Oc2cccc(-c3nc(C)no3)c2)C1` came in with an RP-LC retention time of 705 s.

For `CCn1ccc(C(=O)NC2CCCN(c3cc(N(C)C)ncn3)C2)n1` (stereo not given), the RP-LC retention time is 590 s.

For `COc1ccc(C)cc1NC(=O)N1CCC2(CC1)NC(=O)c1ccc(Cl)cc1N2C`, the RP-LC retention time is 884 s.

In turn, `O=C(CSc1nnc2c(=O)n(-c3ccccc3)ccn12)c1ccc(Br)cc1` came in with an RP-LC retention time of 881 s.

`Cc1nc(C)c(-c2nnc(NC(=O)c3cc(=O)c4ccccc4o3)o2)s1` came in with an RP-LC retention time of 653 s.
